These results are taken from publication PMC6385813, “Macrocyclisation of small peptides enabled by oxetane incorporation” (Chemical Science, 2019).

The data set in a line: head-to-tail lactamisation of free linear peptides (H-/-OH), DEPBT (2 equiv), iPr2EtN (2 equiv). The settings on record: DMF, 1.0 mM, 25.0 °C.

`CC(C)C[C@@H]1NC(=O)[C@H](Cc2ccc(O)cc2)NC(=O)[C@H](C)NC2(CNC(=O)[C@H](C)NC1=O)COC2` [H-Ala-GOx-Ala-Tyr-Leu-OH]: the ring closure, isolated yield (from CC(C)C[C@H](NC(=O)[C@H](Cc1ccc(O)cc1)NC(=O)[C@H](C)NC1(CNC(=O)[C@H](C)N)COC1)C(=O)O, 15-membered ring, 24.0 h) is 57%.
Consider `CC(C)C[C@@H]1NC(=O)[C@H](Cc2ccc(O)cc2)NC(=O)[C@H](C)NC(=O)CNC(=O)[C@H](C)NC1=O` [H-Ala-Gly-Ala-Tyr-Leu-OH], for which the ring closure, isolated yield (from CC(C)C[C@H](NC(=O)[C@H](Cc1ccc(O)cc1)NC(=O)[C@H](C)NC(=O)CNC(=O)[C@H](C)N)C(=O)O, 15-membered ring, 24.0 h) was found to be 40%.
Take `CC(C)C[C@@H]1NC(=O)[C@H](CC(=O)OC(C)(C)C)NC(=O)CNC2(CNC1=O)COC2` [H-Asp(tBu)-Leu-GOx-Gly-OH]: the ring closure, isolated yield (from CC(C)C[C@H](NC(=O)[C@@H](N)CC(=O)OC(C)(C)C)C(=O)NCC1(NCC(=O)O)COC1, 12-membered ring, 48.0 h) was found to be 49%.
As for `CC(C)C[C@@H]1NC(=O)[C@H](CC(=O)OC(C)(C)C)NC(=O)CNC(=O)CNC1=O` [H-Asp(tBu)-Leu-Gly-Gly-OH], under “from CC(C)C[C@H](NC(=O)[C@@H](N)CC(=O)OC(C)(C)C)C(=O)NCC(=O)NCC(=O)O, 12-membered ring, 48.0 h”, the ring closure, isolated yield amounted to 14%.
For the compound `CC(C)C[C@@H]1NC(=O)[C@H]2CCCN2C(=O)CNC2(CNC1=O)COC2` [H-D-Pro-Leu-GOx-Gly-OH], where the note is “from CC(C)C[C@H](NC(=O)[C@H]1CCCN1)C(=O)NCC1(NCC(=O)O)COC1, 12-membered ring, 48.0 h”, the ring closure, isolated yield was determined as 54%.
In the case of `CC(C)C[C@@H]1NC(=O)[C@H]2CCCN2C(=O)CNC(=O)CNC1=O` [H-D-Pro-Leu-Gly-Gly-OH], under “from CC(C)C[C@H](NC(=O)[C@H]1CCCN1)C(=O)NCC(=O)NCC(=O)O, 12-membered ring, 48.0 h”, the ring closure, isolated yield was 0%.
In the case of `CC(C)C[C@@H]1NC(=O)[C@H](Cc2ccc(O)cc2)NC(=O)[C@H](C)NC2(CNC(=O)[C@H](C)NC1=O)COC2` [H-GOx-Ala-Tyr-Leu-Ala-OH], the ring closure, isolated yield (from CC(C)C[C@H](NC(=O)[C@H](Cc1ccc(O)cc1)NC(=O)[C@H](C)NC1(CN)COC1)C(=O)N[C@@H](C)C(=O)O, 15-membered ring, 24.0 h) worked out at 43%.
With `CC(C)C[C@@H]1NC(=O)[C@H](Cc2ccc(O)cc2)NC(=O)[C@H](C)NC(=O)CNC(=O)[C@H](C)NC1=O` [H-Gly-Ala-Tyr-Leu-Ala-OH], the ring closure, isolated yield (from CC(C)C[C@H](NC(=O)[C@H](Cc1ccc(O)cc1)NC(=O)[C@H](C)NC(=O)CN)C(=O)N[C@@H](C)C(=O)O, 15-membered ring) worked out at 30%.
For `CC(C)C[C@@H]1NC(=O)[C@H](Cc2ccc(O)cc2)NC(=O)[C@H](C)NC(=O)C(C)(C)NC(=O)[C@H](C)NC1=O` [H-Leu-Ala-Aib-Ala-Tyr-OH], the ring closure, isolated yield (from CC(C)C[C@H](N)C(=O)N[C@@H](C)C(=O)NC(C)(C)C(=O)N[C@@H](C)C(=O)N[C@@H](Cc1ccc(O)cc1)C(=O)O, 15-membered ring, 24.0 h) amounted to 29%.
Regarding `CC(C)C[C@@H]1NC(=O)[C@H](Cc2ccc(O)cc2)NC(=O)[C@H](C)NC2(CNC(=O)[C@H](C)NC1=O)COC2` [H-Leu-Ala-GOx-Ala-Tyr-OH], the ring closure, isolated yield (from CC(C)C[C@H](N)C(=O)N[C@@H](C)C(=O)NCC1(N[C@@H](C)C(=O)N[C@@H](Cc2ccc(O)cc2)C(=O)O)COC1, 15-membered ring, 24.0 h) amounted to 51%.
Turning to `CC(C)C[C@@H]1NC(=O)[C@H](Cc2ccc(O)cc2)NC(=O)[C@@H]2CCCN2C2(CNC(=O)[C@H](C)NC1=O)COC2` [H-Leu-Ala-GOx-Pro-Tyr-OH], the ring closure, isolated yield (from CC(C)C[C@H](N)C(=O)N[C@@H](C)C(=O)NCC1(N2CCC[C@H]2C(=O)N[C@@H](Cc2ccc(O)cc2)C(=O)O)COC1, 15-membered ring, 48.0 h) was 48%.
For the compound `CC(C)C[C@@H]1NC(=O)[C@H](Cc2ccc(O)cc2)NC(=O)[C@H](C)NC(=O)CNC(=O)[C@H](C)NC1=O` [H-Leu-Ala-Gly-Ala-Tyr-OH], the ring closure, isolated yield (from CC(C)C[C@H](N)C(=O)N[C@@H](C)C(=O)NCC(=O)N[C@@H](C)C(=O)N[C@@H](Cc1ccc(O)cc1)C(=O)O, 15-membered ring, 24.0 h) is 31%.
On to `CC(C)C[C@@H]1NC(=O)[C@H](Cc2ccc(O)cc2)NC(=O)[C@@H]2CCCN2C(=O)CNC(=O)[C@H](C)NC1=O` [H-Leu-Ala-Gly-Pro-Tyr-OH], for which the ring closure, isolated yield (from CC(C)C[C@H](N)C(=O)N[C@@H](C)C(=O)NCC(=O)N1CCC[C@H]1C(=O)N[C@@H](Cc1ccc(O)cc1)C(=O)O, 15-membered ring) came out at 13%.
`CC(C)C[C@@H]1NC(=O)[C@H](Cc2ccc(O)cc2)NC(=O)[C@H](C)NC(C)(C)CNC(=O)[C@H](C)NC1=O` [H-Leu-Ala-NHCH2C(Me)2-Ala-Tyr-OH]: the ring closure, isolated yield (from CC(C)C[C@H](N)C(=O)N[C@@H](C)C(=O)NCC(C)(C)N[C@@H](C)C(=O)N[C@@H](Cc1ccc(O)cc1)C(=O)O, 15-membered ring, 24.0 h) stood at 32%.
`CC(C)C[C@@H]1NC(=O)[C@H](Cc2ccc(O)cc2)NC(=O)[C@H](C)NCCNC(=O)[C@H](C)NC1=O` [H-Leu-Ala-NHCH2CH2-Ala-Tyr-OH]: the ring closure, isolated yield (from CC(C)C[C@H](N)C(=O)N[C@@H](C)C(=O)NCCN[C@@H](C)C(=O)N[C@@H](Cc1ccc(O)cc1)C(=O)O, 15-membered ring, 24.0 h) was found to be 28%.
Regarding `CC(C)C[C@@H]1NC(=O)[C@H](Cc2ccc(O)cc2)NC(=O)[C@H](C)NC(=O)CN(C)C(=O)[C@H](C)NC1=O` [H-Leu-Ala-Sar-Ala-Tyr-OH], under “from CC(C)C[C@H](N)C(=O)N[C@@H](C)C(=O)N(C)CC(=O)N[C@@H](C)C(=O)N[C@@H](Cc1ccc(O)cc1)C(=O)O, 15-membered ring, 24.0 h”, the ring closure, isolated yield is 36%.
As for `CC(C)C[C@@H]1NC(=O)[C@H](Cc2ccc(O)cc2)NC(=O)[C@H](C)NC(=O)CCNC(=O)[C@H](C)NC1=O` [H-Leu-Ala-βAla-Ala-Tyr-OH], where the note is “from CC(C)C[C@H](N)C(=O)N[C@@H](C)C(=O)NCCC(=O)N[C@@H](C)C(=O)N[C@@H](Cc1ccc(O)cc1)C(=O)O, 16-membered ring, 24.0 h”, the ring closure, isolated yield came to 39%.
Regarding `CC(C)C[C@@H]1NC(=O)[C@H](Cc2ccccc2)NC(=O)[C@H]([C@@H](C)OC(C)(C)C)NC2(CNC(=O)[C@H](C(C)C)NC(=O)[C@H](Cc3ccc(OC(C)(C)C)cc3)NC1=O)COC2` [H-Leu-Tyr(tBu)-Val-GOx-Thr(tBu)-Phe-OH], the ring closure, isolated yield (from CC(C)C[C@H](N)C(=O)N[C@@H](Cc1ccc(OC(C)(C)C)cc1)C(=O)N[C@H](C(=O)NCC1(N[C@H](C(=O)N[C@@H](Cc2ccccc2)C(=O)O)[C@@H](C)OC(C)(C)C)COC1)C(C)C, 18-membered ring, 48.0 h) was found to be 58%.
On to `CC(C)C[C@@H]1NC(=O)[C@H](Cc2c[nH]c3ccccc23)NC(=O)CNC2(COC2)[C@H](C)NC1=O` [H-Trp-Leu-AOx-Gly-OH], for which the ring closure, isolated yield (from CC(C)C[C@H](NC(=O)[C@@H](N)Cc1c[nH]c2ccccc12)C(=O)N[C@@H](C)C1(NCC(=O)O)COC1, 12-membered ring, 48.0 h) was 50%.
With `CC(C)C[C@@H]1NC(=O)[C@H](Cc2c[nH]c3ccccc23)NC(=O)CNC(=O)[C@H](C)NC1=O` [H-Trp-Leu-Ala-Gly-OH], the ring closure, isolated yield (from CC(C)C[C@H](NC(=O)[C@@H](N)Cc1c[nH]c2ccccc12)C(=O)N[C@@H](C)C(=O)NCC(=O)O, 12-membered ring, 48.0 h) was found to be 21%.
As for `CC(C)C[C@@H]1NC(=O)[C@H](Cc2c[nH]c3ccccc23)NC(=O)CNC2(CNC1=O)COC2` [H-Trp-Leu-GOx-Gly-OH], the ring closure, isolated yield (from CC(C)C[C@H](NC(=O)[C@@H](N)Cc1c[nH]c2ccccc12)C(=O)NCC1(NCC(=O)O)COC1, 12-membered ring, 48.0 h) came out at 65%.
As for `CC(C)C[C@@H]1NC(=O)[C@H](Cc2c[nH]c3ccccc23)NC(=O)CNC(=O)CNC1=O` [H-Trp-Leu-Gly-Gly-OH], the ring closure, isolated yield (from CC(C)C[C@H](NC(=O)[C@@H](N)Cc1c[nH]c2ccccc12)C(=O)NCC(=O)NCC(=O)O, 12-membered ring, 48.0 h) is 15%.
For the compound `CC(C)C[C@@H]1NC(=O)[C@H](Cc2ccc(O)cc2)NC(=O)[C@H](C)NC2(CNC(=O)[C@H](C)NC1=O)COC2` [H-Tyr-Leu-Ala-GOx-Ala-OH], the ring closure, isolated yield (from CC(C)C[C@H](NC(=O)[C@@H](N)Cc1ccc(O)cc1)C(=O)N[C@@H](C)C(=O)NCC1(N[C@@H](C)C(=O)O)COC1, 15-membered ring, 24.0 h) came to 31%.
Consider `CC(C)C[C@@H]1NC(=O)[C@H](Cc2ccc(O)cc2)NC(=O)[C@H](C)NC(=O)CNC(=O)[C@H](C)NC1=O` [H-Tyr-Leu-Ala-Gly-Ala-OH], for which the ring closure, isolated yield (from CC(C)C[C@H](NC(=O)[C@@H](N)Cc1ccc(O)cc1)C(=O)N[C@@H](C)C(=O)NCC(=O)N[C@@H](C)C(=O)O, 15-membered ring) is 24%.
